Results taken from PMC8500670, “A selective WDR5 degrader inhibits acute myeloid leukemia in patient-derived mouse models” (Science translational medicine, 2021).

Columns and labels:
Assay in all cases: biochemical
Design in all cases: protein methyltransferase inhibition panel, single concentration, duplicate
PRMT4 = target: T1, PRMT4 (Homo sapiens, UniProt Q86X55)
T1 construct: gene CARM1
T1 sequence (Q86X55 1-608): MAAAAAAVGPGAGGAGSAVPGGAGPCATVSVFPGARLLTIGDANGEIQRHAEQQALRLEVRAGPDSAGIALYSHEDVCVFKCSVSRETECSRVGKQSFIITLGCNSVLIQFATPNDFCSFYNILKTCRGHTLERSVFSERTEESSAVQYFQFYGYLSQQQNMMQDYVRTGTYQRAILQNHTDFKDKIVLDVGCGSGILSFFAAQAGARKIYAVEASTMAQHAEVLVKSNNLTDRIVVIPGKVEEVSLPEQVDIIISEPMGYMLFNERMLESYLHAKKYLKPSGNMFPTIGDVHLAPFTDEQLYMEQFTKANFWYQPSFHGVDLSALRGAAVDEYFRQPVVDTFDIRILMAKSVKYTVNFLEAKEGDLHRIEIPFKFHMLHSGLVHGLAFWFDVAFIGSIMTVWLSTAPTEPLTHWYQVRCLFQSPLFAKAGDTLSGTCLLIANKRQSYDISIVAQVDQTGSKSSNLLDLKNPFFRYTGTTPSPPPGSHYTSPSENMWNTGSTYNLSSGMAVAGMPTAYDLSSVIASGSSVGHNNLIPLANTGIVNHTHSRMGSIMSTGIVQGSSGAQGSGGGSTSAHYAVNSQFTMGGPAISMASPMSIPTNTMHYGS
Protocol: (§1) We next assessed selectivity of MS67 against 22 protein methyltransferases (table S2) and a broad panel of common drug targets including 45 kinases (table S3) and 44 G protein–coupled receptors (GPCR), ion channels, and transporters (table S4). […] We subsequently determined that MS67 had moderate binding affinity (Ki = 1.0 ± 0.8 μM) to Sigma 2 receptor (fig. S10).

PRMT6 = PRMT6 (Homo sapiens, UniProt Q96LA8)
PRMT6, sequence (Q96LA8 whole entry): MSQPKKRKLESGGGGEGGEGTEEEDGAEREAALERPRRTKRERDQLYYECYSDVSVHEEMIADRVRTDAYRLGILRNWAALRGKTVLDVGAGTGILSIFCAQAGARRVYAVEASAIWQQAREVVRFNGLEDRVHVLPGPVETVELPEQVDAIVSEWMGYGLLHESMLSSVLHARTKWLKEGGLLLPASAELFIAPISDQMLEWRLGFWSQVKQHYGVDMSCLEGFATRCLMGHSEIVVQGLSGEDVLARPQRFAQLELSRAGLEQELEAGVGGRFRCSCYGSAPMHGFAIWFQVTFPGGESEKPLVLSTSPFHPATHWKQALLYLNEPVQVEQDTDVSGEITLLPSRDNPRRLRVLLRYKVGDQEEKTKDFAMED
Protocol: as §1

PRMT8 = PRMT8 (Homo sapiens, UniProt Q9NR22)
PRMT8, sequence (Q9NR22 whole entry): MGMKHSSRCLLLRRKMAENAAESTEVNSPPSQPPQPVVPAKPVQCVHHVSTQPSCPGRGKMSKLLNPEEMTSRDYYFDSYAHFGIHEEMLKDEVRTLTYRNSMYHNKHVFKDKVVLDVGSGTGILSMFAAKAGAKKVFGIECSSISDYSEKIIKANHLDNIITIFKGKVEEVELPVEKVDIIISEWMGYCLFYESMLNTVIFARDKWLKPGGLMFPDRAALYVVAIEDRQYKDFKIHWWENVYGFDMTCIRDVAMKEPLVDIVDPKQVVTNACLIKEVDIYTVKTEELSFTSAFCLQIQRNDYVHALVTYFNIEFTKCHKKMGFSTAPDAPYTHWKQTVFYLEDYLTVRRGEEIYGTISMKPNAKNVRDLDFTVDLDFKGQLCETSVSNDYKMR
Protocol: as §1

SMYD3 = target: T2, SMYD3 (Homo sapiens, UniProt Q9H7B4)
T2 sequence (Q9H7B4 1-428): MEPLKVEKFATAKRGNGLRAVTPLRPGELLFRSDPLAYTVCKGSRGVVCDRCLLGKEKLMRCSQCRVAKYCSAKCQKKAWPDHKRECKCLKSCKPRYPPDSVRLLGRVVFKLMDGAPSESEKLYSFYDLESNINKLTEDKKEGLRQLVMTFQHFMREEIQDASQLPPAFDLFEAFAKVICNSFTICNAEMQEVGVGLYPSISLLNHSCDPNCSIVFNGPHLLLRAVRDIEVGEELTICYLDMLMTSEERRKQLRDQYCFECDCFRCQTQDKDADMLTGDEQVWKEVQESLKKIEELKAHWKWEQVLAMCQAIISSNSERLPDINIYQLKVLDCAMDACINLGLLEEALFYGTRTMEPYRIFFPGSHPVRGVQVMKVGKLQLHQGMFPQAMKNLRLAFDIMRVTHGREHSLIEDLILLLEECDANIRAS
Protocol: as §1

NSD1 = NSD1 (Homo sapiens, UniProt Q96L73)
Protocol: as §1

SET8 = target: T3, SET8 (Homo sapiens, UniProt Q9NQR1)
T3 construct: gene KMT5A
T3 sequence (Q9NQR1 1-393): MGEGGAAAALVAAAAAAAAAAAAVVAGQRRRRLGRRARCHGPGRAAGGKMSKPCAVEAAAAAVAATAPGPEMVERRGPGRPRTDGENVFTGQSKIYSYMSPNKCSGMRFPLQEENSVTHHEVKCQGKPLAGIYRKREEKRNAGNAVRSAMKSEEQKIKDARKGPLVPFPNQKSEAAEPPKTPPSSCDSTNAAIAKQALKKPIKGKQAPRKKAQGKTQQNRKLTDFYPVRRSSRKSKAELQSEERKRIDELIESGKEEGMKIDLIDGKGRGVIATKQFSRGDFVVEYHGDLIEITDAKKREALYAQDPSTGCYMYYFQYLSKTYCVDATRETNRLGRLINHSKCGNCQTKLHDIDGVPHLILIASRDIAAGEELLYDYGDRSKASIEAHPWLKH
Protocol: as §1

DOT1L = DOT1L (Homo sapiens, UniProt Q8TEK3)
DOT1L, sequence (Q8TEK3 whole entry): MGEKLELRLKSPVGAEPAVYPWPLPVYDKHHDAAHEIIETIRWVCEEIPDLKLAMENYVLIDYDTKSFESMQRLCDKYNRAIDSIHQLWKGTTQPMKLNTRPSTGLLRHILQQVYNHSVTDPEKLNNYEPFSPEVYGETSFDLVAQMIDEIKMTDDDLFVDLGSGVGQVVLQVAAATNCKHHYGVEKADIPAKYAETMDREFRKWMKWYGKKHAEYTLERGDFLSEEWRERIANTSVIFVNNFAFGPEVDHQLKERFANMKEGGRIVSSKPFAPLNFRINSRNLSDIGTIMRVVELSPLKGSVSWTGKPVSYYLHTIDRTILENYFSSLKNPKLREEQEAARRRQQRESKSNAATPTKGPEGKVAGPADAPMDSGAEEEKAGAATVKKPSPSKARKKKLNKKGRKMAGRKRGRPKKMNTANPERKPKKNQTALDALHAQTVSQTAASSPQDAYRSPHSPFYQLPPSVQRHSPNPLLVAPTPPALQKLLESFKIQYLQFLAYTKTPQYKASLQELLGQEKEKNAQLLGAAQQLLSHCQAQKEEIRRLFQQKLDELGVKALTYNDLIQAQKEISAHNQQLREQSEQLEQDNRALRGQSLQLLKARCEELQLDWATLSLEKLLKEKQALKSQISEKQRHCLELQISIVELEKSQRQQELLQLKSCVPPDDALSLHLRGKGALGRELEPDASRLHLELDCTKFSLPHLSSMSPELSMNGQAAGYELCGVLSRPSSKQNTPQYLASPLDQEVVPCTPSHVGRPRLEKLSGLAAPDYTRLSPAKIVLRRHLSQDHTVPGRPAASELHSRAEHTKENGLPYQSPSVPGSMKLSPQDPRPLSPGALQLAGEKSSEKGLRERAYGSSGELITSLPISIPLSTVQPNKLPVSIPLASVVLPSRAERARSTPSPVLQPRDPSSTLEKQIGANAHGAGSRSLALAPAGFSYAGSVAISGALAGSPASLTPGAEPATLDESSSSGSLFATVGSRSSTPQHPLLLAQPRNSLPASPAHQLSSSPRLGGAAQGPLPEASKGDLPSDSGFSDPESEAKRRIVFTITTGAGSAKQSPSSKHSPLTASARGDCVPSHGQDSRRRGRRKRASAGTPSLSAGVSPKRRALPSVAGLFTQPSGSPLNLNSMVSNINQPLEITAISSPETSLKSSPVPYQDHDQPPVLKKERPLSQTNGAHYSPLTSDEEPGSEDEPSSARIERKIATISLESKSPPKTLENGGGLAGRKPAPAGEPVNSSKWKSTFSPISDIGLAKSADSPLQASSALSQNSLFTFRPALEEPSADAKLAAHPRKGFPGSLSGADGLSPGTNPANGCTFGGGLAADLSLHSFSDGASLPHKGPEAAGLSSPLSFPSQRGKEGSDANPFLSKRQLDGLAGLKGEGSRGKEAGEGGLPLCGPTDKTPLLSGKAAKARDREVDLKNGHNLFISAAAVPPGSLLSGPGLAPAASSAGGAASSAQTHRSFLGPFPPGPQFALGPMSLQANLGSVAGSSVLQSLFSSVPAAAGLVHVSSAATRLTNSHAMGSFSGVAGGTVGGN
Protocol: as §1

PRMT3 = PRMT3 (Homo sapiens, UniProt O60678)
PRMT3, sequence (O60678 whole entry): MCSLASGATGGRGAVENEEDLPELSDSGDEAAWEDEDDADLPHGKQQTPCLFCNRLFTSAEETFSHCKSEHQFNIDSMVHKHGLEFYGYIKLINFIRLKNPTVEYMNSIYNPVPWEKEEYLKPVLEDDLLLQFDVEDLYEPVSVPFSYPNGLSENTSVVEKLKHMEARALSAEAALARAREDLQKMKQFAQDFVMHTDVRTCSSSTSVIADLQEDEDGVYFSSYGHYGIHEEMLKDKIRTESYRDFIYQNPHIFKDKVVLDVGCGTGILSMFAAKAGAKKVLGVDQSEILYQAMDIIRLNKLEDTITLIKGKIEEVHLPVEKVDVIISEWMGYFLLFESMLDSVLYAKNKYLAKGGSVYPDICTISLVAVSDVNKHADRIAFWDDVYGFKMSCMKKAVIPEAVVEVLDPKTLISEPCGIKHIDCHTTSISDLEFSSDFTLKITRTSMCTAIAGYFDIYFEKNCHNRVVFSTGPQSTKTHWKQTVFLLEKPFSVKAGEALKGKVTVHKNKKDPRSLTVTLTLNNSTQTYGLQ
Protocol: as §1

PRMT1 = PRMT1 (Homo sapiens, UniProt Q99873)
PRMT1, sequence (Q99873 whole entry): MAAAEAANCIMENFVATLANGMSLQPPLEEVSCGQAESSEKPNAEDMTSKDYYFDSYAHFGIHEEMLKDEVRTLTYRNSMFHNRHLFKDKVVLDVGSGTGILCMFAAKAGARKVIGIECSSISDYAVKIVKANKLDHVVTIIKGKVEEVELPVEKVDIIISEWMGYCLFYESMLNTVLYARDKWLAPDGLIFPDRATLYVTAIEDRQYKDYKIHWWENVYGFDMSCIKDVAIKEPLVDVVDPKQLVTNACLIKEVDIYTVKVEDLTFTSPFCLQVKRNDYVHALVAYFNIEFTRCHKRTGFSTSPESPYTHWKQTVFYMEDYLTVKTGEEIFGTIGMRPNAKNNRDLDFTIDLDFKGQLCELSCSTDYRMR
Protocol: as §1

SET7/9 = target: T4, SET7/9 (Homo sapiens, UniProt Q8WTS6)
T4 construct: gene SETD7
T4 sequence (Q8WTS6 1-366): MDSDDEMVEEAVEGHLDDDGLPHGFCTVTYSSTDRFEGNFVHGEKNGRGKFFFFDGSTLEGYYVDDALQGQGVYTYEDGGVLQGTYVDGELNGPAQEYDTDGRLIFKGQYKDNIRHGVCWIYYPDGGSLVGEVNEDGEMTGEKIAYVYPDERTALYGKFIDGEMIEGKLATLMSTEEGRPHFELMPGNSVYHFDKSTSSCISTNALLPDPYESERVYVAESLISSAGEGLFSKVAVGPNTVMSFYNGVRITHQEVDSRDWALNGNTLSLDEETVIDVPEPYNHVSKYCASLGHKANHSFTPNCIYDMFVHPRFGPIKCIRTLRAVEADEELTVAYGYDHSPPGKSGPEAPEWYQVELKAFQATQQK
Protocol: as §1

Measured: inhibition at 10 µM

Cc1ncsc1-c1ccc([C@H](C)NC(=O)[C@@H]2C[C@@H](O)CN2C(=O)[C@@H](NC(=O)CNC(=O)c2ccc(F)c(-c3ccc(N4C[C@@H](C)N(C)[C@@H](C)C4)c(NC(=O)c4c[nH]c(=O)cc4C(F)(F)F)c3)c2)C(C)(C)C)cc1 [MS67]
< 10%: all assays above
